Experimental data published in the supplement of paper PMC10307832.

Columns and labels:
Experiment in all cases: relative viability (nuclei count vs DMSO), 5 days (fraction); higher = more cells survive
[1] = compound: Cc1ccc(C(=O)N(CCCN)[C@@H](c2nc3cc(Cl)ccc3c(=O)n2Cc2ccccc2)C(C)C)cc1 [Ispinesib] + COc1cc2c(Oc3ccc(NC(=O)C4(C(=O)Nc5ccc(F)cc5)CC4)cc3F)ccnc2cc1OCCCN1CCOCC1 [Foretinib] (partner 0.25 µM)
Summary of the method: (§1)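 One day after seeding in 1536-well plates, lung cancer cell lines were dosed by pin tool. Dosing was either single-drug or a fixed anchor-drug dose plus five library-drug doses (not always all listed) in √10 steps. After 5 days, nuclei were stained in one fix-and-stain step and counted on 4× images, and relative viability is the nuclei count of treated wells over that of vehicle wells, given as the median of duplicate plates.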

[2] = compound: Cc1ccc(C(=O)N(CCCN)[C@@H](c2nc3cc(Cl)ccc3c(=O)n2Cc2ccccc2)C(C)C)cc1 [Ispinesib] + O=C(c1cc(Cc2n[nH]c(=O)c3ccccc23)ccc1F)N1CCN(C(=O)C2CC2)CC1 [Olaparib] (partner 8 µM)
Summary of the method: as §1

[3] = compound: C[C@]1(O)C[C@@H](c2nc(-c3ccc4ccc(-c5ccccc5)nc4c3)c3c(N)nccn32)C1 [Linsitinib] + O=C(c1cc(Cc2n[nH]c(=O)c3ccccc23)ccc1F)N1CCN(C(=O)C2CC2)CC1 [Olaparib] (partner 8 µM)
Summary of the method: as §1

[4] = compound: C[C@]1(O)C[C@@H](c2nc(-c3ccc4ccc(-c5ccccc5)nc4c3)c3c(N)nccn32)C1 [Linsitinib] + COc1cccc2cc(-c3nc([C@H]4CC[C@H](C(=O)O)CC4)n4ncnc(N)c34)[nH]c12 [OSI-027] (partner 0.5 µM)
Summary of the method: as §1

| Cell Line | relative viability ([1]; first compound 0.001 µM) | relative viability ([1]; first compound 0.003162 µM) | relative viability ([1]; first compound 0.01 µM) | relative viability ([1]; first compound 0.03162 µM) | relative viability ([1]; first compound 0.1 µM) | relative viability ([2]; first compound 0.001 µM) | relative viability ([2]; first compound 0.003162 µM) | relative viability ([2]; first compound 0.03162 µM) | relative viability ([2]; first compound 0.1 µM) | relative viability ([3]; first compound 0.01 µM) | relative viability ([3]; first compound 0.03162 µM) | relative viability ([3]; first compound 0.1 µM) | relative viability ([3]; first compound 0.3162 µM) | relative viability ([3]; first compound 1 µM) | relative viability ([4]; first compound 0.01 µM) | relative viability ([4]; first compound 0.03162 µM) | relative viability ([4]; first compound 0.1 µM) | relative viability ([4]; first compound 0.3162 µM) | relative viability ([4]; first compound 1 µM) | relative viability ([2]; first compound 0.01 µM) |
| --- | --- | --- | --- | --- | --- | --- | --- | --- | --- | --- | --- | --- | --- | --- | --- | --- | --- | --- | --- | --- |
| NCI-H727 | 0.944 | 0.873 | 0.933 | 0.91 | 0.718 | 0.642 | 0.771 | 0.659 | 0.633 | 0.694 | 0.773 | 0.747 | 0.449 | 0.601 | 0.609 | 0.597 | 0.608 | 0.347 | 0.358 | – |
| NCI-H1975 | 0.996 | 0.934 | 1.05 | 0.632 | 0.144 | 0.864 | 0.802 | 0.922 | 0.181 | 0.775 | 0.678 | 0.737 | 0.645 | 0.584 | 0.68 | 0.738 | 0.722 | 0.544 | 0.347 | 0.842 |
| NCI-H460 | 0.901 | 0.995 | 1.13 | 0.879 | 0.0487 | 0.538 | 0.504 | 0.597 | 0.195 | 0.423 | 0.273 | 0.421 | – | 0.332 | 0.736 | 0.646 | 0.701 | 0.507 | 0.304 | 0.436 |
| EPLC-272H | 0.793 | 0.657 | 0.659 | 0.322 | 0.23 | 0.776 | 0.781 | 0.308 | 0.155 | 1.42 | 0.694 | 0.841 | 0.469 | 0.479 | 0.262 | 0.296 | – | – | 0.257 | 0.769 |
| SW 900 | 0.813 | 0.76 | 0.927 | 0.854 | 0.204 | 0.858 | 0.889 | 0.827 | 0.418 | 0.685 | 0.872 | 0.821 | 0.793 | 0.667 | 0.565 | 0.593 | 0.481 | 0.397 | 0.352 | 0.914 |
| SK-LU-1 | 1.01 | 0.806 | 0.942 | 0.821 | 0.286 | 0.606 | 0.449 | 0.435 | 0.356 | 0.428 | 0.419 | 0.552 | 0.41 | 0.468 | 0.338 | – | 0.295 | 0.221 | 0.197 | 0.393 |
| NCI-H322M | 1.09 | 0.994 | 0.957 | 0.498 | 0.43 | 0.804 | 0.81 | 0.786 | 0.549 | 0.746 | 0.875 | 0.87 | 0.772 | 0.798 | 0.547 | 0.47 | 0.531 | 0.361 | 0.384 | 0.855 |
| NCI-H2405 | 1.04 | 1.06 | 1.02 | 1.07 | 0.978 | 0.992 | 0.942 | 0.853 | 0.556 | 0.881 | 0.879 | 0.886 | 0.705 | 0.699 | 0.624 | 0.638 | 0.637 | 0.53 | 0.347 | 0.801 |
| NCI-H1666 | 1.03 | 0.989 | 0.903 | 0.918 | 0.539 | 0.756 | 0.801 | 0.713 | 0.663 | 0.743 | 1.02 | 0.76 | 0.667 | 0.75 | 0.772 | 0.957 | 0.759 | 0.476 | 0.434 | 0.702 |
| NCI-H358 | 0.694 | 0.695 | 0.702 | 0.28 | 0.123 | 0.624 | 0.671 | 0.569 | 0.214 | 0.585 | 0.64 | 0.602 | 0.47 | 0.333 | 0.781 | 0.928 | 0.68 | 0.421 | 0.246 | 0.761 |
| H3255 | 0.932 | 0.869 | 0.995 | 0.508 | 0.158 | 0.589 | 0.597 | 0.46 | 0.394 | 0.6 | 0.604 | 0.564 | 0.456 | 0.5 | 0.654 | 0.682 | 0.725 | 0.467 | 0.576 | 0.541 |
| LCLC-103H | 0.869 | 1.03 | 0.95 | 0.665 | 0.693 | 0.8 | 0.888 | 0.746 | 0.775 | 0.743 | 0.776 | 0.771 | 0.689 | 0.758 | 0.44 | 0.475 | 0.42 | 0.356 | 0.367 | 0.856 |
| NCI-H2347 | – | 1.12 | 1.16 | 0.669 | 0.904 | 0.504 | 0.692 | 0.559 | 0.525 | 0.584 | 0.687 | 0.598 | 0.608 | 0.596 | 0.36 | 0.517 | 0.261 | – | 0.356 | 0.592 |
| LK-2 | 1.25 | 1.21 | 1.43 | 1.2 | 0.617 | 0.795 | 0.814 | 0.632 | 0.329 | 0.63 | 0.721 | 0.683 | 0.415 | 0.389 | 0.243 | 0.242 | 0.154 | 0.167 | 0.168 | 0.698 |
| HCC-15 | 1.1 | 1.02 | 1.1 | 0.561 | 0.188 | 0.683 | 0.759 | 0.831 | 0.445 | 0.697 | 0.938 | 0.759 | 0.364 | 0.655 | 0.677 | 0.677 | 0.616 | – | 0.246 | 0.917 |
| SW 1573 | 0.978 | 0.893 | 0.907 | 1.1 | 0.32 | 0.541 | 0.421 | 0.142 | 0.185 | 0.497 | 0.563 | 0.432 | 0.329 | 0.348 | 0.772 | 0.524 | 0.502 | 0.393 | 0.282 | 0.447 |
| NCI-H838 | 1.07 | 1.14 | 1.16 | 1 | 0.555 | 0.914 | 0.875 | 0.668 | 0.203 | 0.754 | 0.722 | 0.73 | 0.482 | 0.533 | 0.323 | 0.42 | 0.312 | – | 0.189 | 1.11 |
| RERF-LC-KJ | 0.875 | 0.9 | 0.976 | 0.91 | 0.257 | 0.934 | 0.791 | 0.22 | 0.328 | 0.933 | 0.884 | 0.841 | 0.847 | 0.538 | 0.617 | 0.602 | 0.553 | 0.298 | 0.251 | 0.427 |
| ChaGo-K-1 | 0.909 | 0.867 | 0.993 | 0.926 | 0.629 | 0.399 | 0.449 | 0.445 | 0.382 | 0.426 | 0.404 | 0.401 | – | 0.365 | 0.613 | 0.627 | 0.573 | 0.319 | 0.522 | 0.431 |
| NCI-H441 | 0.926 | 1 | 1.19 | 0.419 | 0.291 | 0.529 | 0.516 | 0.237 | 0.247 | 0.515 | 0.667 | 0.487 | 0.399 | 0.435 | 0.672 | 0.616 | 0.546 | 0.307 | 0.312 | 0.631 |
| NCI-H2170 | 0.997 | 1.03 | 0.96 | 0.806 | 0.359 | 0.593 | 0.679 | 0.481 | 0.444 | 0.533 | 0.519 | 0.598 | – | 0.506 | 0.752 | 0.756 | 0.708 | 0.417 | 0.638 | 0.651 |
| PC-14 | 1.02 | 1.09 | 1.23 | 0.917 | 0.186 | 0.27 | 0.141 | 0.0729 | 0.144 | 0.26 | 0.177 | 0.303 | 0.233 | 0.263 | 0.746 | 0.706 | 0.798 | 0.568 | 0.546 | 0.0942 |
| NCI-H2009 | 1.28 | 1.33 | 1.32 | 1.09 | 0.431 | 0.735 | 0.678 | 0.859 | 0.257 | 0.652 | 0.672 | 0.744 | 0.533 | 0.695 | 0.746 | 0.646 | 0.696 | – | 0.428 | 0.793 |
| NCI-H1395 | 1.06 | 0.998 | 1.03 | 0.866 | 0.356 | 0.436 | 0.446 | 0.369 | 0.356 | 0.451 | – | 0.441 | 0.454 | 0.444 | 0.571 | 0.637 | 0.612 | 0.622 | 0.545 | 0.439 |
| NCI-H1437 | 1.3 | 1.39 | 1.39 | 1.27 | 0.748 | 0.685 | 0.653 | 0.7 | 0.256 | 0.636 | 0.632 | 0.667 | 0.636 | 0.584 | 0.874 | 0.885 | 1.02 | 0.853 | 0.893 | 0.763 |
| NCI-H647 | 1.26 | 1.32 | 1.41 | 0.703 | 0.191 | 0.749 | 0.545 | 0.172 | 0.143 | 0.472 | 0.509 | 0.735 | 0.442 | 0.48 | 0.679 | 0.658 | 0.582 | – | 0.428 | 0.681 |
| NCI-H1793 | 0.711 | 0.585 | 0.958 | 0.637 | 0.194 | 1.04 | 0.833 | 0.752 | 0.371 | 0.772 | 0.841 | 0.628 | 0.666 | 0.697 | 0.25 | 0.314 | 0.246 | 0.205 | 0.175 | 1.19 |
